{"source": "patent US10428083B2", "about": "“Heterocyclylmethyl-thienouracile as antagonists of the adenosine-A2B-receptor” (BAYER PHARMA AKTIENGESELLSCHAFT, priority 2015, dated 2019)", "target": "human adenosine A2b receptor (Homo sapiens (Human), UniProt P29275)", "sequence (P29275 whole entry)": "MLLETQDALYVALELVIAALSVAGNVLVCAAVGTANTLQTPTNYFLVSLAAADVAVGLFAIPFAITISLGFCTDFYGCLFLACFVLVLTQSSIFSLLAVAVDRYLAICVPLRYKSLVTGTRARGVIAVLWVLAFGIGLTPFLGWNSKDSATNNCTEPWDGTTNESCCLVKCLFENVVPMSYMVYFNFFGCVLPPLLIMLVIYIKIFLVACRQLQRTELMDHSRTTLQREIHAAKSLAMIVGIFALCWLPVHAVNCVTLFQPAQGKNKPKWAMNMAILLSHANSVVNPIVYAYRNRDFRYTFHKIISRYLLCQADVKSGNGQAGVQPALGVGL", "experiment": "Cellular in vitro reporter gene test for A2b receptor activity (CHO-K1, CRE-luciferase, NECA stimulation)", "type": "cell-based", "details": "recombinant CHO-K1 cell line, CRE-luciferase reporter, antagonism of EC50 concentration of NECA; in some cases means of several determinations, rounded to two significant figures; read-out: A2b receptor IC50", "summary_of_the_method": "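CHO-K1 cells with CRE-driven luciferase; antagonists co-incubated with NECA at its EC50, determined in a pre-experiment on each test day. Luciferase read by luminescence 3 h after NECA addition.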", "data": [{"smiles": "Cc1c(CN2CCNC(=O)C2=O)sc2c1c(=O)n(CC(C)C)c(=O)n2CCCF", "note": "[Example 121, 6-[(2,3-Dioxopiperazin-1-yl)methyl]-1-(3-fluoropropyl)-3-isobutyl-5-methylthieno[2,3-d]pyrimidine-2,4(1H,3H)-dione]", "values": [{"measurement": "IC50", "value": 0.02, "unit": "µM"}]}, {"smiles": "CCSCCn1c(=O)n(CC)c(=O)c2c(C)c(CN3CCNC3=O)sc21", "note": "[Example 309, 3-Ethyl-1-[2-(ethylsulphanyl)ethyl]-5-methyl-6-[(2-oxoimidazolidin-1-yl)methyl]thieno[2,3-d]pyrimidine-2,4(1H,3H)-dione]", "values": [{"measurement": "IC50", "value": 0.036, "unit": "µM"}]}, {"smiles": "CCn1c(=O)c2c(C)c(CN3CCNC3=S)sc2n(CC2CCO2)c1=O", "note": "(racemic) [Example 34, 3-Ethyl-5-methyl-1-(oxetan-2-ylmethyl)-6-[(2-thioxoimidazolidin-1-yl)methyl]thieno[2,3-d]pyrimidine-2,4(1H,3H)-dione (racemate)]", "values": [{"measurement": "IC50", "value": 0.01, "unit": "µM"}]}, {"smiles": "CCn1c(=O)c2c(C)c(CN3CCNC3=O)sc2n(CC(F)F)c1=O", "note": "[Example 177, 1-(2,2-Difluoroethyl)-3-ethyl-5-methyl-6-[(2-oxoimidazolidin-1-yl)methyl]thieno[2,3-d]pyrimidine-2,4(1H,3H)-dione]", "values": [{"measurement": "IC50", "value": 0.015, "unit": "µM"}]}, {"smiles": "CCn1c(=O)c2c(C(F)F)c(CN3CCNC3=O)sc2n(CCC(F)(F)F)c1=O", "note": "[Example 100, 5-(Difluoromethyl)-3-ethyl-6-[(2-oxoimidazolidin-1-yl)methyl]-1-(3,3,3-trifluoropropyl)thieno[2,3-d]pyrimidine-2,4(1H,3H)-dione]", "values": [{"measurement": "IC50", "value": 0.0068, "unit": "µM"}]}, {"smiles": "CCn1c(=O)c2c(C(F)(F)F)c(CN3CCOC3=O)sc2n(CCC(F)(F)F)c1=O", "note": "[Example 23, 3-Ethyl-6-[(2-oxo-1,3-oxazolidin-3-yl)methyl]-5-(trifluoromethyl)-1-(3,3,3-trifluoropropyl)thieno[2,3-d]pyrimidine-2,4(1H,3H)-dione]", "values": [{"measurement": "IC50", "value": 0.016, "unit": "µM"}]}, {"smiles": "CCn1c(=O)c2c(C)c(CN3CCNC(=O)C3=O)sc2n(CF)c1=O", "note": "[Example 393, 6-[(2,3-Dioxopiperazin-1-yl)methyl]-3-ethyl-1-(fluoromethyl)-5-methylthieno[2,3-d]pyrimidine-2,4(1H,3H)-dione]", "values": [{"measurement": "IC50", "value": 0.045, "unit": "µM"}]}, {"smiles": "CCn1c(=O)c2c(C)c(CN3CCNC3=O)sc2n(CC(C)OC)c1=O", "note": "(single isomer, unassigned; enantiomer 2) [Example 64, 3-Ethyl-1-(2-methoxypropyl)-5-methyl-6-[(2-oxoimidazolidin-1-yl)methyl]thieno[2,3-d]pyrimidine-2,4(1H,3H)-dione (Enantiomer 2)]", "values": [{"measurement": "IC50", "value": 0.086, "unit": "µM"}]}, {"smiles": "COCCn1c(=O)c2c(C)c(Cn3[nH]ccc3=O)sc2n(CCOC)c1=O", "note": "[Example 288, 1,3-Bis(2-methoxyethyl)-5-methyl-6-[(5-oxo-2,5-dihydro-1H-pyrazol-1-yl)methyl]thieno[2,3-d]pyrimidine-2,4(1H,3H)-dione]", "values": [{"measurement": "IC50", "value": 0.14, "unit": "µM"}]}, {"smiles": "COCCn1c(=O)c2c(C)c(CN3CCNC(=O)C3=O)sc2n(CC2CCCO2)c1=O", "note": "(racemic) [Example 278, 6-[(2,3-Dioxopiperazin-1-yl)methyl]-3-(2-methoxyethyl)-5-methyl-1-(tetrahydrofuran-2-ylmethyl)thieno[2,3-d]pyrimidine-2,4(1H,3H)-dione]", "values": [{"measurement": "IC50", "value": 0.13, "unit": "µM"}]}, {"smiles": "Cc1c(CN2CCNC2=S)sc2c1c(=O)n(CC(C)C)c(=O)n2CC(F)F", "note": "[Example 143]", "values": [{"measurement": "IC50", "value": 0.003, "unit": "µM"}]}, {"smiles": "CCn1c(=O)c2c(C)c(CN3CCNC3=O)sc2n(CCOC2CCCC2)c1=O", "note": "[Example 308, 1-[2-(Cyclopentyloxy)ethyl]-3-ethyl-5-methyl-6-[(2-oxoimidazolidin-1-yl)methyl]thieno[2,3-d]pyrimidine-2,4(1H,3H)-dione]", "values": [{"measurement": "IC50", "value": 0.14, "unit": "µM"}]}, {"smiles": "CCn1c(=O)c2c(C)c(CN3CCNC3=S)sc2n(CCS(C)(=O)=O)c1=O", "note": "[Example 295, 3-Ethyl-5-methyl-1-[2-(methylsulphonyl)ethyl]-6-[(2-thioxoimidazolidin-1-yl)methyl]thieno[2,3-d]pyrimidine-2,4(1H,3H)-dione]", "values": [{"measurement": "IC50", "value": 0.22, "unit": "µM"}]}, {"smiles": "CCn1c(=O)c2c(C)c(CN3CCN(C(C)C)C3=S)sc2n(CC2CCCO2)c1=O", "note": "(racemic) [Example 175, 3-Ethyl-6-[(3-isopropyl-2-thioxoimidazolidin-1-yl)methyl]-5-methyl-1-(tetrahydrofuran-2-ylmethyl)thieno[2,3-d]pyrimidine-2,4(1H,3H)-dione]", "values": [{"measurement": "IC50", "value": 0.053, "unit": "µM"}]}, {"smiles": "CCn1c(=O)c2c(C)c(CN3CCNC3=S)sc2n(CC2CCCO2)c1=O", "note": "(single isomer, unassigned) [Example 139, 3-Ethyl-5-methyl-1-(tetrahydrofuran-2-ylmethyl)-6-[(2-thioxoimidazolidin-1-yl)methyl]thieno[2,3-d]pyrimidine-2,4(1H,3H)-dione]", "values": [{"measurement": "IC50", "value": 0.0028, "unit": "µM"}]}, {"smiles": "Cc1c(CN2CCNC2=NC#N)sc2c1c(=O)n(C(C)C)c(=O)n2CC1CCO1", "note": "(racemic) [Example 264, [1-{[3-Isopropyl-5-methyl-1-(oxetan-2-ylmethyl)-2,4-dioxo-1,2,3,4-tetrahydrothieno[2,3-d]pyrimidin-6-yl]methyl}imidazolidin-2-ylidene]cyanamide]", "values": [{"measurement": "IC50", "value": 0.0031, "unit": "µM"}]}, {"smiles": "Cc1c(CN2CCNC2=NC#N)sc2c1c(=O)n(CC(F)(F)F)c(=O)n2CC1CCO1", "note": "(single isomer, unassigned) [Example 450, [1-{[5-Methyl-1-(oxetan-2-ylmethyl)-2,4-dioxo-3-(2,2,2-trifluoroethyl)-1,2,3,4-tetrahydrothieno[2,3-d]pyrimidin-6-yl]methyl}imidazolidin-2-ylidene]cyanamide]", "values": [{"measurement": "IC50", "value": 0.014, "unit": "µM"}]}, {"smiles": "Cc1c(CN2CCNC2=O)sc2c1c(=O)n(CC(F)F)c(=O)n2CC1CCCO1", "note": "(single isomer, unassigned) [Example 220, 3-(2,2-Difluoroethyl)-5-methyl-6-[(2-oxoimidazolidin-1-yl)methyl]-1-(tetrahydrofuran-2-ylmethyl)thieno[2,3-d]pyrimidine-2,4(1H,3H)-dione]", "values": [{"measurement": "IC50", "value": 0.015, "unit": "µM"}]}, {"smiles": "CCn1c(=O)c2c(C)c(CN3CCNC3=NC#N)sc2n(CC2CCO2)c1=O", "note": "(racemic) [Example 256, [1-{[3-Ethyl-5-methyl-1-(oxetan-2-ylmethyl)-2,4-dioxo-1,2,3,4-tetrahydrothieno[2,3-d]pyrimidin-6-yl]methyl}imidazolidin-2-ylidene]cyanamide]", "values": [{"measurement": "IC50", "value": 0.011, "unit": "µM"}]}, {"smiles": "Cc1c(CN2CCNC2=O)sc2c1c(=O)n(C(C)C)c(=O)n2CC1CCCO1", "note": "(single isomer, unassigned) [Example 188, 3-Isopropyl-5-methyl-6-[(2-oxoimidazolidin-1-yl)methyl]-1-(tetrahydrofuran-2-ylmethyl)thieno[2,3-d]pyrimidine-2,4(1H,3H)-dione]", "values": [{"measurement": "IC50", "value": 0.04, "unit": "µM"}]}, {"smiles": "COCCn1c(=O)c2c(C)c(CN3CCNC3=NC#N)sc2n(CC2CCO2)c1=O", "note": "(single isomer, unassigned) [Example 366, [1-{[3-Methoxyethyl-5-methyl-1-(oxetan-2-ylmethyl)-2,4-dioxo-1,2,3,4-tetrahydrothieno[2,3-d]pyrimidin-6-yl]methyl}imidazolidin-2-ylidene]cyanamide]", "values": [{"measurement": "IC50", "value": 0.04, "unit": "µM"}]}, {"smiles": "CCOCCn1c(=O)n(CC(C)C)c(=O)c2c(C)c(CN3CCNC(=O)C3=O)sc21", "note": "[Example 271, 6-[(2,3-Dioxopiperazin-1-yl)methyl]-1-(2-ethoxyethyl)-3-isobutyl-5-methylthieno[2,3-d]pyrimidine-2,4(1H,3H)-dione]", "values": [{"measurement": "IC50", "value": 0.047, "unit": "µM"}]}, {"smiles": "CCn1c(=O)c2c(C)c(CN3CCNC3=O)sc2n(CC2CCCO2)c1=O", "note": "(single isomer, unassigned; enantiomer 1) [Example 69, 3-Ethyl-5-methyl-6-[(2-oxoimidazolidin-1-yl)methyl]-1-(tetrahydrofuran-2-ylmethyl)thieno[2,3-d]pyrimidine-2,4(1H,3H)-dione (Enantiomer 1)]", "values": [{"measurement": "IC50", "value": 0.0098, "unit": "µM"}]}, {"smiles": "COCCn1c(=O)c2c(C)c(CN3CCNC(=O)C3=O)sc2n(CCC(F)(F)F)c1=O", "note": "[Example 276, 6-[(2,3-Dioxopiperazin-1-yl)methyl]-3-(2-methoxyethyl)-5-methyl-1-(3,3,3-trifluoropropyl)thieno[2,3-d]pyrimidine-2,4(1H,3H)-dione]", "values": [{"measurement": "IC50", "value": 0.0099, "unit": "µM"}]}, {"smiles": "CCn1c(=O)c2c(C)c(CN3CCNC3=O)sc2n(CCCOC)c1=O", "note": "[Example 311, 3-Ethyl-1-(3-methoxypropyl)-5-methyl-6-[(2-oxoimidazolidin-1-yl)methyl]thieno[2,3-d]pyrimidine-2,4(1H,3H)-dione]", "values": [{"measurement": "IC50", "value": 0.031, "unit": "µM"}]}, {"smiles": "COCCn1c(=O)n(CCF)c(=O)c2c(C)c(CN3CCNC3=O)sc21", "note": "[Example 97, 3-(2-Fluoroethyl)-1-(2-methoxyethyl)-5-methyl-6-[(2-oxoimidazolidin-1-yl)methyl]thieno[2,3-d]pyrimidine-2,4(1H,3H)-dione]", "values": [{"measurement": "IC50", "value": 0.018, "unit": "µM"}]}, {"smiles": "Cc1c(CN2CCNC(=O)C2=O)sc2c1c(=O)n(CC(F)F)c(=O)n2C", "note": "[Example 275, 3-(2,2-Difluoroethyl)-6-[(2,3-dioxopiperazin-1-yl)methyl]-1,5-dimethylthieno[2,3-d]pyrimidine-2,4(1H,3H)-dione]", "values": [{"measurement": "IC50", "value": 0.076, "unit": "µM"}]}, {"smiles": "Cc1c(CN2CCNC2=NC#N)sc2c1c(=O)n(CC(C)(C)C)c(=O)n2CC1CCCO1", "note": "(single isomer, unassigned) [Example 448, [1-{[3-(2,2-Dimethylpropyl)-5-methyl-2,4-dioxo-1-(tetrahydrofuran-2-ylmethyl)-1,2,3,4-tetrahydrothieno[2,3-d]pyrimidin-6-yl]methyl}imidazolidin-2-ylidene]cyanamide]", "values": [{"measurement": "IC50", "value": 0.017, "unit": "µM"}]}, {"smiles": "COCCn1c(=O)n(CC2CCCO2)c(=O)c2c(C)c(CN3CCNC3=O)sc21", "note": "(racemic) [Example 332, 1-(2-Methoxyethyl)-5-methyl-6-[(2-oxoimidazolidin-1-yl)methyl]-3-(tetrahydrofuran-2-ylmethyl)thieno[2,3-d]pyrimidine-2,4(1H,3H)-dione]", "values": [{"measurement": "IC50", "value": 0.11, "unit": "µM"}]}, {"smiles": "CCOCCn1c(=O)n(CCOC)c(=O)c2c(C)c(CN3CCNC3=O)sc21", "note": "[Example 232, 1-(2-Ethoxyethyl)-3-(2-methoxyethyl)-5-methyl-6-[(2-oxoimidazolidin-1-yl)methyl]thieno[2,3-d]pyrimidine-2,4(1H,3H)-dione]", "values": [{"measurement": "IC50", "value": 0.093, "unit": "µM"}]}]}
